{
  "source": "patent US7112565B2",
  "about": "“Stabilized pharmaceutical composition in lyophilized form” (Astellas Pharma Inc., priority 1999, dated 2006)",
  "assay": "Test Example 7: dependence of stability on the water content of the composition",
  "assay_type": "physicochemical",
  "conditions": "10 mg Compound (II) + 50 mg lactose",
  "experimental": "Dependence of the Stability of Lyophilized Compositions of Compound (II) upon the Water Content of the Composition\n10 mg of Compound (II) and, as a stabilizer, 50 mg of lactose were dissolved completely in 1 ml of water. The resulting solutions were lyophilized and maintained at 70° C. in glass vials. Nine days after, the resulting compositions were tested on their pH, their water content and the residual amount of Compound (II).",
  "key": {"[1]": {"conditions": "water content at 0 hours 0.9%, after 9 days at 70° C."}, "[2]": {"conditions": "water content at 0 hours 1.4%, after 9 days at 70° C."}, "[3]": {"conditions": "water content at 0 hours 2.6%, after 9 days at 70° C."}, "[4]": {"conditions": "water content at 0 hours 3.4%, after 9 days at 70° C."}, "[5]": {"conditions": "water content at 0 hours 5.1%, after 9 days at 70° C."}},
  "data": [
    {"smiles": "CCCCCOc1ccc(-c2cc(-c3ccc(C(=O)NC4CC(O)C(O)NC(=O)C5C(O)C(C)CN5C(=O)C(C(O)CC(N)=O)NC(=O)C(C(O)C(O)c5ccc(O)c(OS(=O)(=O)[O-])c5)NC(=O)C5CC(O)CN5C(=O)C(C(C)O)NC4=O)cc3)no2)cc1.[Na+]", "note": "(stereo not shown) [Compound (II)]", "values": [
      {"measurement": "pH of reconstituted solution in 1 ml of water", "setting": "all water contents 0.9 to 5.1%, 0 hours", "value": 7.1},
      {"measurement": "Residual amount", "setting": "[1]", "value": 97.6, "unit": "%"},
      {"measurement": "Water content", "setting": "[1]", "value": 2.5, "unit": "%"},
      {"measurement": "pH of reconstituted solution in 1 ml of water", "setting": "[1]", "value": 7.5},
      {"measurement": "Residual amount", "setting": "[2]", "value": 98.1, "unit": "%"},
      {"measurement": "Water content", "setting": "[2]", "value": 2.9, "unit": "%"},
      {"measurement": "pH of reconstituted solution in 1 ml of water", "setting": "[2]", "value": 7.1},
      {"measurement": "Residual amount", "setting": "[3]", "value": 97.1, "unit": "%"},
      {"measurement": "Water content", "setting": "[3]", "value": 3.6, "unit": "%"},
      {"measurement": "pH of reconstituted solution in 1 ml of water", "setting": "[3]", "value": 6.8},
      {"measurement": "Residual amount", "setting": "[4]", "value": 92.7, "unit": "%"},
      {"measurement": "Water content", "setting": "[4]", "value": 4.3, "unit": "%"},
      {"measurement": "pH of reconstituted solution in 1 ml of water", "setting": "[4]", "value": 6.8},
      {"measurement": "Residual amount", "setting": "[5]", "value": 18.3, "unit": "%"},
      {"measurement": "Water content", "setting": "[5]", "value": 5.4, "unit": "%"},
      {"measurement": "pH of reconstituted solution in 1 ml of water", "setting": "[5]", "value": 3.5}
    ]}
  ]
}
